Like-named read-outs stand apart in the source and are kept apart here.
Columns and labels:
[1] = target: T1, Recombinant GST-TAG-MASTL (Homo sapiens, UniProt Q96GX5); test: HTRF-based kinase assay (HTRF KinEASE assay kit); type: biochemical; conditions: for activity at 1 µM: read-out: MASTL activity (%) HTRF (1 µM)
T1 construct: GST; purchased Thermo Fisher Scientific
T1 sequence (Q96GX5 1-879): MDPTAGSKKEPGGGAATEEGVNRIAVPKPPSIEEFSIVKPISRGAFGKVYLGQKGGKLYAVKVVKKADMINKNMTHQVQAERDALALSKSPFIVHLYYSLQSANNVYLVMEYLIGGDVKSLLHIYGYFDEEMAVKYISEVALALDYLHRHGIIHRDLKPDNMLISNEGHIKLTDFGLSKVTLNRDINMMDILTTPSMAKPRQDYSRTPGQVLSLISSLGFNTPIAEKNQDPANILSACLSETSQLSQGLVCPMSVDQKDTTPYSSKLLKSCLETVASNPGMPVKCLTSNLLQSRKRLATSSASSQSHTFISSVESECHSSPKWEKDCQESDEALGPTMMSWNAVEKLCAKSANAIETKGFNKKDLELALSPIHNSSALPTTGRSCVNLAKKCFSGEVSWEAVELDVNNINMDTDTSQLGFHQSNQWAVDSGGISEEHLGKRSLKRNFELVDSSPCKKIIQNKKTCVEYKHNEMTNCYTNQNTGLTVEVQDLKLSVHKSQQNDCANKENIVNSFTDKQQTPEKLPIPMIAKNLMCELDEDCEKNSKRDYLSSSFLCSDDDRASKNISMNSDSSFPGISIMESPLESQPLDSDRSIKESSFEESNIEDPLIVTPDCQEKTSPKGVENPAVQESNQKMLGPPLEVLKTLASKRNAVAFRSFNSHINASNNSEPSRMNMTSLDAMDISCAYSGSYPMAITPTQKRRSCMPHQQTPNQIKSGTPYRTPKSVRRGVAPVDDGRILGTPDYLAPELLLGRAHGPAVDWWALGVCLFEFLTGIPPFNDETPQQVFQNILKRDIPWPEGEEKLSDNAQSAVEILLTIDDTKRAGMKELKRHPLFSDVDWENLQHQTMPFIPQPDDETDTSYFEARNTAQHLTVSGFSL
Excerpt: Recombinant GST-TAG-MASTL (Thermo Fisher Scientific, MA, USA) was used for HTRF-based kinase assays. The HTRF KinEASE assay kit (CisBio, MA, USA) was used according to the manufacturer's instructions.

[2] = test system: pENSA; test: pENSA level by immunofluorescence (described method: in vitro kinase analysis with GST-tag-MASTL and His-tag-ENSA); type: cell-based; conditions: for pENSA (%) Immunofluor ecense (1 µM): compound 1 µM
Description: Two recombinant GST-tag-MASTL (Thermo Fisher Scientific) and His-tag-ENSA (Sino Biological Inc., Beijing, China) were used for in vitro kinase analysis. In vitro kinase analysis was performed as described in the literature [Front Oncol 2020, 10, 571601, 39-202021-10-20doi:10.3389/fonc.2020.571601.].
Phosphorylated ENSA (pENSA), which is activated by phosphorylation by MASTL, can be utilized as a biomarker as it is expected that its activity will be inhibited along with the inhibition of MASTL. In the cell viability assay, MCF7 refers to a breast cancer cell line, and MCF10A refers to a normal breast […] cell line.

[3] = test system: MCF7 breast cancer cell lines; test: Cell viability analysis, WST-8 assay, MCF7; conditions: Homo sapiens, MCF7, 72 h; for viability at 10 µM: read-out: Cell viability (%) WST-8, MCF7, footnote b: concentration 10 µM, 72 hours; for IC50: read-out: IC50 Cell viability (MCF7)
Description: MCF7 breast cancer cell lines and MCF10A normal breast cancer cell lines were treated with serial dilutions of the compounds of the present invention ranging from 1 µM to 15.63 nM for 72 hours. Cell viability was measured by the WST-8 assay (Cyto XTM cell viability assay kit; LPS solution, Daejeon, Korea) according to the manufacturer's instructions.

[4] = read-out: MASTL activity (%) HTRF
[5] = footnote b: concentration 10 µM
[6] = read-out: Cell viability (%) WST-8, MCF7 (1 µM), compound 1 µM, 72 hours
[7] = HTRF, read-out: IC50(nM) MASTL activity
[8] = read-out: Cell viability (%) WST-8, MCF7 (1 µM)
[9] = footnote b: concentration 10 µM, read-out: MASTL activity (%) HTRF

Compound | pENSA (%) Immunofluor ecense [2, 5] | viability at 10 µM [3] [%] | IC50 [1, 7] [nM] | activity at 10 µM [1, 9] [%] | IC50 ([2]; unit µM, read-out: IC50 pENSA) [nM] | IC50 [3] [µM] | further results
Cc1nn(CC(C)C)c(C)c1Nc1nc(Nc2ccc(CC#N)cc2)nc2ccccc12 [compound 3b, 2-(4-((4-((1-isobutyl-3,5-dimethyl-1G-pyrazol-4-yl)amino)quinazolin-2-yl)amino)phenyl)acetonitrile] | 44.3^b % | 55.5 |  |  |  |  | activity at 10 µM [1, 4]: 123%
Cc1n[nH]cc1Nc1nc(Nc2ccc(CC#N)cc2)nc2ccccc12 [compound 3e, 2-(4-((4-((3-methyl-1G-pyrazol-4-yl)amino)quinazolin-2-yl)amino)phenyl)acetonitrile] | 102^b % | 108 |  |  |  |  | activity at 10 µM [1, 4]: 100%
N#CCc1ccc(Nc2nc(Nc3cc[nH]n3)c3ccccc3n2)cc1 [compound 3o, 2-(4-((4-((1G-pyrazol-3-yl)amino)quinazolin-2-yl)amino)phenyl)acetonitrile] |  |  |  |  |  |  | IC50 [1]: 2600 nM; activity at 1 µM [1]: 102%; viability at 1 µM [3, 6]: 108%
Cc1cc(Nc2nc(Nc3ccc(CC#N)cc3)nc3ccccc23)n[nH]1 [compound 3p, 2-(4-((4-((5-methyl-1G-pyrazol-3-yl)amino)quinazolin-2-yl)amino)phenyl)acetonitrile] |  |  | 330 |  |  |  | activity at 1 µM ([1]; compound 1 µM): 53.1%; pENSA (%) Immunofluor ecense (1 µM) [2]: 27.5%; IC50 ([2]; read-out: IC50(nM) pENSA): 239 nM; viability at 1 µM [3, 8]: 106%
N#CCc1ccc(Nc2nc(Nc3cc(Br)[nH]n3)c3ccccc3n2)cc1 [compound 3q, 2-(4-((4-((5-bromo-1G-pyrazol-3-yl)amino)quinazolin-2-yl)amino)phenyl)acetonitrile] |  |  |  |  |  |  | IC50 [1]: 640 nM; activity at 1 µM [1]: 63.1%; viability at 1 µM [3, 6]: 105%
COc1cc(Nc2nc(Nc3ccc(CC#N)cc3)nc3ccccc23)n[nH]1 [compound 3r, 2-(4-((4-((5-methoxy-1G-pyrazol-3-yl)amino)quinazolin-2-yl)amino)phenyl)acetonitrile] |  |  |  |  |  |  | IC50 [1]: 816 nM; activity at 1 µM [1]: 67.2%; viability at 1 µM [3, 6]: 98.3%
N#CCc1ccc(Nc2nc(Nc3n[nH]c4ccccc34)c3ccccc3n2)cc1 [compound 3s, 2-(4-((4-((1G-indazol-3-yl)amino)quinazolin-2-yl)amino)phenyl)acetonitrile] |  |  |  |  |  |  | IC50 ([1]; HTRF, unit µM, read-out: IC50 MASTL activity): 4400 nM; activity at 1 µM ([1]; compound 1 µM): 102%; pENSA (%) Immunofluor ecense (1 µM) [2]: 60.6%; viability at 1 µM [3, 8]: 100%
N#CCc1ccc(Nc2nc(Nc3ccccc3OCc3ccccc3)c3ccccc3n2)cc1 [compound 3t, 2-(4-((4-((2-(benzyloxy)phenyl)amino)quinazolin-2-yl)amino)phenyl)acetonitrile] |  |  |  |  |  |  | activity at 1 µM ([1]; compound 1 µM): 120%; viability at 1 µM [3, 6]: 45.4%
N#CCc1ccc(Nc2nc(Nc3ccccc3O)c3ccccc3n2)cc1 [compound 3u, 2-(4-((4-((2-hydroxyphenyl)amino)quinazolin-2-yl)amino)phenyl)acetonitrile] |  |  |  |  |  |  | activity at 1 µM ([1]; compound 1 µM): 121%; IC50 ([2]; read-out: IC50(nM) pENSA): 678 nM; viability at 1 µM [3, 6]: 49.3%
O=S(=O)(c1ccc(-c2ccccc2)cc1)N1CC2CC1CN2c1nc(Nc2cc(C3CC3)[nH]n2)c2ccccc2n1 (centres unmarked) [compound 15aa, 2-(5-([1,1'-biphenyl]-4-ylsulfonyl)-2,5-diazabicyclo[2.2.1]heptan-2-yl)-M-(5-cyclopropyl-1G-pyrazol-3-yl)quinazolin-4-amine] |  |  |  |  |  |  | activity at 1.1 µM [1, 4]: 55.5%; pENSA (%) Immunofluor ecense ([2]; footnote d: concentration 1.1 µM): 61.2^d %; viability at 1.1 µM ([3]; read-out: Cell viability (%) WST-8, MCF7, footnote d: concentration 1.1 µM, 72 hours): 87.5%
O=S(=O)(c1cccs1)N1CC2CC1CN2c1nc(Nc2cc(C3CC3)[nH]n2)c2ccccc2n1 (centres unmarked) [compound 15ab, M-(5-cyclopropyl-1G-pyrazol-3-yl)-2-(5-(thiophen-2-ylsulfonyl)-2,5-diazabicyclo[2.2.1]heptan-2-yl)quinazolin-4-amine] | 0.4^b % | 3.9 | 222 | 17.3 | 2500 | 2.4 | 
O=S(=O)(C1CC1)N1CC2CC1CN2c1nc(Nc2cc(C3CC3)[nH]n2)c2ccccc2n1 (centres unmarked) [compound 15i, M-(5-cyclopropyl-1G-pyrazol-3-yl)-2-(5-(cyclopropylsulfonyl)-2,5-diazabicyclo[2.2.1]heptan-2-yl)quinazolin-4-amine] | 0.2^b % | 5.2 | 310 | 15.5 | 2100 | 2 | 
O=S(=O)(C1CCCCC1)N1CC2CC1CN2c1nc(Nc2cc(C3CC3)[nH]n2)c2ccccc2n1 (centres unmarked) [compound 15k, 2-(5-(cyclohexylsulfonyl)-2,5-diazabicyclo[2.2.1]heptan-2-yl)-M-(5-cyclopropyl-1G-pyrazol-3-yl)quinazolin-4-amine] | 0.5^b % | 12.7 | 152 | 11.3 | 3500 | 4.1 | 
O=S(=O)(Cc1ccccc1)N1CC2CC1CN2c1nc(Nc2cc(C3CC3)[nH]n2)c2ccccc2n1 (centres unmarked) [compound 15l, 2-(5-(benzylsulfonyl)-2,5-diazabicyclo[2.2.1]heptan-2-yl)-M-(5-cyclopropyl-1G-pyrazol-3-yl)quinazolin-4-amine] | 1.9^b % | 2.4 | 226 | 18.1 | 3700 | 2.7 | 
O=S(=O)(c1c(F)cccc1F)N1CC2CC1CN2c1nc(Nc2cc(C3CC3)[nH]n2)c2ccccc2n1 (centres unmarked) [compound 15p, M-(5-cyclopropyl-1G-pyrazol-3-yl)-2-(5-((2,6-difluorophenyl)sulfonyl)-2,5-diazabicyclo[2.2.1]heptan-2-yl)quinazolin-4-amine] | 2.6^b % | 7.4 | 331 | 180 | 4400 | 4.1 | 
COc1cccc(S(=O)(=O)N2CC3CC2CN3c2nc(Nc3cc(C4CC4)[nH]n3)c3ccccc3n2)c1 (centres unmarked) [compound 15r, M-(5-cyclopropyl-1G-pyrazol-3-yl)-2-(5-((3-methoxyphenyl)sulfonyl)-2,5-diazabicyclo[2.2.1]heptan-2-yl)quinazolin-4-amine] | 0.2^b % | 19 | 492 | 22.7 | 5500 | 4.3 | 
CC(=O)c1ccc(S(=O)(=O)N2CC3CC2CN3c2nc(Nc3cc(C4CC4)[nH]n3)c3ccccc3n2)cc1 (centres unmarked) [compound 15s, 1-(4-((5-(4-((5-cyclopropyl-1G-pyrazol-3-yl)amino)quinazolin-2-yl)-2,5-diazabicyclo[2.2.1]heptan-2-yl)sulfonyl)phenyl)ethan-1-one] | 0.2^b % | 5.1 | 354 | 19.2 | 2200 | 2.9 | 
Cc1cccc(S(=O)(=O)N2CC3CC2CN3c2nc(Nc3cc(C4CC4)[nH]n3)c3ccccc3n2)c1 (centres unmarked) [compound 15t, M-(5-cyclopropyl-1G-pyrazol-3-yl)-2-(5-(/ -tolylsulfonyl)-2,5-diazabicyclo[2.2.1]heptan-2-yl)quinazolin-4-amine] | 0^b % | 35.5 | 563 | 15.5 | 6200 | 7.9 | 
